Consider seven compounds from ChEMBL document CHEMBL1142989, “Synthesis and anti-cancer activity of C-ring-functionalized prodigiosin analogues” (2007).

This assay in a line: Growth inhibition in human NCI60 cells. In kind it is functional. To be noted: for TGI: read-out: Log TGI (converted).

The GI50 is the concentration at which growth is held to half of that of the control. A lower GI50 goes with more potent growth inhibition. By LC50 is commonly meant the concentration lethal to half of the exposed cells or organisms. A word on the TGI: it is the concentration at which net growth stops.

Consider `COC(=O)CCCCCCCCC(=O)C1=C(C)/C(=C/c2[nH]c(-c3ccc[nH]3)cc2OC)N=C1C`, for which it took 16.2 µM to inhibit growth by half (GI50), the LC50 was 95.5 µM and the concentration for total growth inhibition (TGI) was 67.6 µM.

Regarding `CCc1c(-c2ccc[nH]2)[nH]c(/C=C2\N=C(C)C(C(=O)CCCCC(=O)OC)=C2C)c1C`, the GI50 is 9.33 µM, the LC50 is 83.2 µM and the TGI is 33.9 µM.

In the case of `COc1cc(-c2ccc[nH]2)[nH]c1/C=C1\N=C(C)C(C(C)=O)=C1C` [PRODIGIOSIN5], the GI50 is 0.708 µM, the LC50 is 89.1 µM and the TGI is 40.7 µM.

For the compound `COC(=O)CCC(=O)C1=C(C)/C(=C/c2[nH]c(-c3ccc[nH]3)cc2OC)N=C1C`, the GI50 is 0.794 µM, the LC50 was 12.3 µM and the TGI was 3.24 µM.

Turning to `CCCCCC1=C/C(=C/c2[nH]c(-c3ccc[nH]3)cc2OC)N=C1C` [PRODIGIOSIN CHLORIDE], the GI50 was 0.0141 µM and the TGI was 2.09 µM.

On to `COC(=O)CCCCC(=O)C1=C(C)/C(=C/c2[nH]c(-c3ccc[nH]3)cc2OC)N=C1C`, for which the GI50 is 0.646 µM, the LC50 was 6.46 µM and the TGI was 2.24 µM.

Turning to `CCOC(=O)C1=C(C)/C(=C/c2[nH]c(-c3ccc[nH]3)cc2OC)N=C1C` [PRODIGIOSIN 4], growth was halved (GI50) at 0.0468 µM, the LC50 was 12.3 µM and the TGI was 1.1 µM.
